Experimental data as given in patent publication US10251937B2, “Retro-inverso analogs of spadin display increased antidepressant effects” (MEDINCELL, priority 2014, dated 2019).
Square brackets hold non-standard residues; d marks the D form. Peptide text beside a SMILES is read from it.

Assays:
[1] = target: hERG (human Ether a go-go Related Gene) current IKr (Homo sapiens, UniProt Q12809); assay: Cardiac IKr (hERG) current, whole cell patch clamp in transfected HEK cells
Method: HEK-293 native cells were grown in serum in an atmosphere of 95% air/5% CO2 in Dulbecco's modified Eagle's medium supplemented with 10% (v/v) heat inactivated fetal bovine containing 1% (v/v) of penicillin/streptomycin and Glutamax×1. Cells were plated at a density of 20000 cells/35 mm dish and after 24 h cells were transfected using the JetPEI® method (Polyplus, France) with 25 ng/35 mm dish of p-IRES-HERG channel vector. Patch clamp experiments were carried out 48 h after transfection
All electrophysiological recordings were performed in whole cell configuration of the patch clamp technique. Each current was evaluated by using a RK 400 patch clamp amplifier (Axon Instrument, USA), low-pass filtered at 3 kHz and digitized at 10 kHz using a 12-bit analog-to-digital converter digidata (1322 series, Axon Instrument, USA). All current amplitudes are expressed in current densities. Results were expressed as mean±standard error of the mean (SEM). […] The bath solution contained 150 mM NaCl, 5 mM KCl, 3 mM MgCl2, 1 mM CaCl2 and 10 mM HEPES adjusted to pH 7.4 with NaOH. The pipette solution contained 155 mM KCl, 3 mM MgCl2, 5 mM EGTA and 10 mM HEPES adjusted to pH 7.2 with KOH. […] All experiments were performed at room temperature (21-22° c.). Stimulation protocols and data acquisition were carried out using a microcomputer (Dell Pentium) with a commercial software and hardware (pClamp 8.2). Currents were recorded by voltage clamp steps to membrane potentials of −100 to +60 mV in 20 mV steps applied from a holding potential of −80 mV. Duration of depolarization pulses were 0.825 ms, and the pulse cycling rate was 5 sec. […] Cells were continuously superfused with a microperfusion system. […] Tail currents were generated by repolarization to −40 mV. […] IKR currents were activated by voltage clamp steps of membrane potentials from −100 to +100 mV in 10 mV steps applied from a holding potential of +80 mV and tail currents were generated by a repolarization to +40 mV. […] The amplitudes of IKS and IKR currents were calculated at both the end of the first pulse and the peak of the tail pulse.

TREK-1 channels = target: T1, TREK-1 channels (Homo sapiens, UniProt O95069); assay: TREK-1 current inhibition, whole cell patch clamp on h-TREK-1/HEK cell line; assay type: cell-based
T1 construct: expressed in transfected cells
T1 sequence (O95069 1-426): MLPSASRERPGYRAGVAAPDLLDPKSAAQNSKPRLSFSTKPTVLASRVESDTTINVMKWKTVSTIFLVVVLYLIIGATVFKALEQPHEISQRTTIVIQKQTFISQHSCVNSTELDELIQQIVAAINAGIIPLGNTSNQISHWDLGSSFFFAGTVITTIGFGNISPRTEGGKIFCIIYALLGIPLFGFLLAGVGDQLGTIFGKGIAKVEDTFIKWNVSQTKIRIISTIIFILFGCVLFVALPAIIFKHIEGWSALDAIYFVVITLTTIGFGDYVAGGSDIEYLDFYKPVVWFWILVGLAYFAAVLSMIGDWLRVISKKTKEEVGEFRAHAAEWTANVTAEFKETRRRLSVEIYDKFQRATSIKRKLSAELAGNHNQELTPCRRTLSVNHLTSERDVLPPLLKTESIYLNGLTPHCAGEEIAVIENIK
Method: The human-TREK-1/HEK293 cell line (h-TREK-1/HEK) (Moha ou Maati, H. et al. (2011). PloS one, 6 (10), e25602) and HEK-IKS cell line (Ducroq, J. et al, (2010) Br J Pharmacol, 159(1):93-101) were grown in the presence of 0.5 mg/mL G418 in Dulbecco's modified Eagle's medium supplemented with 10% (v/v) heat inactivated fetal bovine serum containing 1% (v/v) penicillin/streptomycin in an atmosphere of 95% air/5% CO2.
All electrophysiological experiments were performed on h-TREK-1/HEK cells seeded at a density of 20 000 cells/35-mm dish after 2-6 days of culture. All electrophysiological recordings were performed in whole cell configuration of the patch clamp technique. Each current was evaluated by using a RK 400 patch clamp amplifier (Axon Instrument, USA), low-pass filtered at 3 kHz and digitized at 10 kHz using a 12-bit analog-to-digital converter digidata (1322 series, Axon Instrument, USA). All current amplitudes are expressed in current densities. Results were expressed as mean±standard error of the mean (SEM). […] The bath solution contained 150 mM NaCl, 5 mM KCl, 3 mM MgCl2, 1 mM CaCl2 and 10 mM HEPES adjusted to pH 7.4 with NaOH. The pipette solution contained 155 mM KCl, 3 mM MgCl2, 5 mM EGTA and 10 mM HEPES adjusted to pH 7.2 with KOH. TREK-1 currents were evaluated in the presence of a cocktail of potassium channel inhibitors (K+ blockers: 3 mM 4-aminopyridine (4-AP), 10 mM tetraethylammonium (TEA), 10 μM glibenclamide, 100 nM apamin and 50 nM charybdotoxin). All experiments were performed at room temperature (21-22° c.). Stimulation protocols and data acquisition were carried out using a microcomputer (Dell Pentium) with a commercial software and hardware (pClamp 8.2). Currents were recorded by voltage clamp steps to membrane potentials of −100 to +60 mV in 20 mV steps applied from a holding potential of −80 mV. Duration of depolarization pulses were […], and the pulse cycling rate was 5 sec. TREK-1 current amplitudes were evaluated at the end of the stimulation pulses. Cells were continuously superfused with a microperfusion system. Inhibitory effects of spadin and analogs were performed on arachidonic acid pre-activated TREK-1 currents. Spadin and analogs were tested at the unique dose of 100 nM. For both Analog 3 (SEQ ID:4) and Analog 8 (SEQ ID:9) concentration-dependant inhibitions were performed by applying concentrations ranging between 1 nM to 1 μM. IKS currents were activated by voltage clamp steps of membrane potentials from −100 to +100 mV in 20 mV steps applied from a holding potential of −80 mV. Tail currents were generated by repolarization to −40 mV. Duration of both depolarization and repolarization pulses were 2.4 s, and the pulse cycling rate was 10 s. IKR currents were activated by voltage clamp steps of membrane potentials from −100 to +100 mV in 10 mV steps applied from a holding potential of […] and tail currents were generated by a repolarization to […]. Duration of both depolarization and repolarization pulses were 1 s, and the pulse cycling rate was 5 s. The amplitudes of IKS and IKR currents were calculated at both the end of the first pulse and the peak of the tail pulse.
Neuropharmacology 62, 278, (2012)) was used as reference.

C57Bl/6J mice [2] = assay: Tail-immersion (tail flick) test, thermal pain; assay type: in vivo; settings: 10 μg/kg i.v., 30 min before test, n=10
Method: Mice were i.v. injected with 10 μg/kg of spadin in a bolus of 100 μL or 100 μL of a saline solution (0.9% NaCl) 30 min before the beginning of the test. The tail was immersed in a water bath at 48° C. until withdrawal was observed (cut-off time: 30 s). Two separate withdrawal latency time determinations were averaged.

C57Bl/6J mice [3] = assay: Novelty Suppressed Feeding (NSF) test; assay type: in vivo; settings: 10 μg/kg i.v. daily for 4 days, test on day 5
Method: Stock solutions were prepared of 2 mg/mL (10^-3M) in distilled water, and before injection spadin solution was diluted in NaCl 0.9% to obtain the different concentrations used for treatments. Corticosterone (Sigma-Aldrich, France) was dissolved in drinking water at the concentration of 3.5 mg/L in the presence of 4.5 g/L of beta-cyclodextrin. […] Fluoxetine (Sigma-Aldrich, France) was dissolved in drinking water at the dose of 80 mg/L and administered during 21 days. For i.p. administration, fluoxetine (TEVA Santé, France) was dissolved in NaCl 0.9% at a concentration of 0.75 mg/mL. The amount injected was 3 mg/kg. Spadin and analogues were administered by i.v. injection. For acute treatment, drugs were administered in a single 100 μL bolus 30 min prior to the beginning of the behavioral tests. For subchronic treatment drugs were injected during 4 consecutive days and behavioral tests were performed on day 5, without additional injection.
The NSF paradigm is a two day test protocol. Day one, mice were deprived from food. Day two mice were placed in a highly brightly lit area, in a plastic box (45×45×20 cm), with a floor covered with wooden bedding. The test was carried out during a 10 min period; during this time the latency to eat was measured. During the test a single pellet of food was placed in the center of the box, on a white platform.

human-IKS current = human-IKS current (Homo sapiens, UniProt P51787); assay: Cardiac IKs current, whole cell patch clamp in HEK-IKS cell line
Method: All electrophysiological recordings were performed in whole cell configuration of the patch clamp technique. Each current was evaluated by using a RK 400 patch clamp amplifier (Axon Instrument, USA), low-pass filtered at 3 kHz and digitized at 10 kHz using a 12-bit analog-to-digital converter digidata (1322 series, Axon Instrument, USA). All current amplitudes are expressed in current densities. Results were expressed as mean±standard error of the mean (SEM). […] The bath solution contained 150 mM NaCl, 5 mM KCl, 3 mM MgCl2, 1 mM CaCl2 and 10 mM HEPES adjusted to pH 7.4 with NaOH. The pipette solution contained 155 mM KCl, 3 mM MgCl2, 5 mM EGTA and 10 mM HEPES adjusted to pH 7.2 with KOH. […] All experiments were performed at room temperature (21-22° c.). Stimulation protocols and data acquisition were carried out using a microcomputer (Dell Pentium) with a commercial software and hardware (pClamp 8.2). Currents were recorded by voltage clamp steps to membrane potentials of −100 to +60 mV in 20 mV steps applied from a holding potential of −80 mV. Duration of depolarization pulses were 0.825 ms, and the pulse cycling rate was 5 sec. […] Cells were continuously superfused with a microperfusion system. […] IKS currents were activated by voltage clamp steps of membrane potentials from −100 to +100 mV in 20 mV steps applied from a holding potential of −80 mV. Tail currents were generated by repolarization to −40 mV. Duration of both depolarization and repolarization pulses were 2.4 s, and the pulse cycling rate was 10 s. […] The amplitudes of IKS and IKR currents were calculated at both the end of the first pulse and the peak of the tail pulse.

[4] = 0 mV, in the presence of 10 μM, n=5

Chain of hERG (human Ether a go-go Related Gene) current IKr (Q12809 whole entry): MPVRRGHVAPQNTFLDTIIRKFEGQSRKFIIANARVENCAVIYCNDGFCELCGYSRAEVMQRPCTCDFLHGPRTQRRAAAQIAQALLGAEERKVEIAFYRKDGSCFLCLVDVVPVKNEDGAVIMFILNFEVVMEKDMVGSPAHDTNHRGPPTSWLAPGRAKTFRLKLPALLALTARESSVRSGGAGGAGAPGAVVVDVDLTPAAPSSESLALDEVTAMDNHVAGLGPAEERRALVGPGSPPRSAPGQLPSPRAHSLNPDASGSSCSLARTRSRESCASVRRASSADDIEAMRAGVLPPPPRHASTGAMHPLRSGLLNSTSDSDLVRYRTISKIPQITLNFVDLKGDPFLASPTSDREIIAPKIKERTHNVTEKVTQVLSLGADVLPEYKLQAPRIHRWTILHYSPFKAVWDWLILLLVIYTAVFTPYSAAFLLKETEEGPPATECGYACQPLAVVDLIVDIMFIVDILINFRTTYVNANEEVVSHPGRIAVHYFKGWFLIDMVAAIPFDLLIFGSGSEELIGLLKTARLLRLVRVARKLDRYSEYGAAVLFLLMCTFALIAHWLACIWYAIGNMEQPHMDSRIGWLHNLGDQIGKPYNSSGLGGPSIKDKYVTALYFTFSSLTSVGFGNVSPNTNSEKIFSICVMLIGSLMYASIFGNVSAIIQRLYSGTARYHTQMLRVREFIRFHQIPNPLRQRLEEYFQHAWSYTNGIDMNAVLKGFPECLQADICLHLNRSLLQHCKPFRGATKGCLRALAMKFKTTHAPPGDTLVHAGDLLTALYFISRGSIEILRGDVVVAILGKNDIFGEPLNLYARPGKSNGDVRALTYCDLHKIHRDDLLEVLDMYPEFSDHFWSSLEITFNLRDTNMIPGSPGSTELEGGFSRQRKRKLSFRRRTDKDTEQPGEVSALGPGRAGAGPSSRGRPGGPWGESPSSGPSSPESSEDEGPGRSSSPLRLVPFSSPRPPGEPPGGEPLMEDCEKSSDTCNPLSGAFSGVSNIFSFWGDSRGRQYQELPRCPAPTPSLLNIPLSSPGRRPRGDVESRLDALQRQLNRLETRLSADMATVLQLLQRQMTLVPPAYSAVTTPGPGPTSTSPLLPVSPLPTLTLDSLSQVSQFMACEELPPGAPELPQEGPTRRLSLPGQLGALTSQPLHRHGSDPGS

## CC[C@@H](C)[C@@H](NC(=O)CNC(=O)[C@H](NC(=O)[C@@H](CO)NC(=O)[C@@H](Cc1c[nH]c2ccccc12)NC(=O)CNC(=O)[C@@H](CC(C)C)NC(=O)[C@@H](CCCNC(=N)N)NC(C)=O)C(C)C)C(=O)N1CCC[C@@H]1C(=O)NCC(=O)N[C@H](CO)C(=O)N[C@H](Cc1c[nH]c2ccccc12)C(=O)N[C@H](CCCNC(=N)N)C(=O)N1CCC[C@@H]1C(=O)N[C@H](CC(C)C)C(=O)N1CCC[C@@H]1C(=O)N[C@H](C)C(N)=O [Analog 3, Ac-rlGwsvGipGswrplpa-NH2] (Ac-[dR][dL]G[dW][dS][dV]G[dI][dP]G[dS][dW][dR][dP][dL][dP][dA]-NH2)
[1]; [4]
  IKr current density at end of first pulse: 224.48±35.94 pA/pF
  IKr tail current density: 212.99±38.38 pA/pF
[1]; 10 μM
  effect on currents generated by IKr channels expressed in HEK cells: did not modify currents
TREK-1 channels; 100 nM, n=10 to 12
  blockade effect on TREK-1 channel activity compared to spadin: increased blockade effect
TREK-1 channels; compared to spadin IC50
  higher affinity for TREK-1 channels than spadin: 6 fold
C57Bl/6J mice [2]
  tail withdrawal time: 11.32 ± 1.04 s
C57Bl/6J mice [3]
  latency to feed, NSF: 143.88 ± 23.42 s
human-IKS current; [4]
  IKS tail current density: 8.33±2.06 pA/pF
  IKs current density at the end of pulses: 17.58±4.03 pA/pF
human-IKS current; 10 μM
  effect on currents generated by IKS channels expressed in HEK cells: did not modify currents
